What was measured:
[1] = TPI release assay; format: physicochemical; details: PBS pH 5.5 and 6.5, carbonate buffer pH 9, through day 7
Method: TPI release Assay. We conducted assays to evaluate TPI release from SWNTs in carbonate buffer (pH 9) and PBS buffer (pH 6.5 and 5.5). SWNT-TPI (200 μL, 16.5 TPI molecules/SWNT on average) was added to MINI Dialysis Devices (MWCO: 20K) and the volume of release medium was 3 mL. At fixed timepoints from 1 day to 7 days, 2 μL of the outlet medium was removed to test the rate of TPI release. The cumulative drug release (CDR) percentage was calculated by the following equation: CDR (%)=Wreleased/Wloaded×100% Here, CDR represents the cumulative drug release percentage, Wreleased represents the mass of released TPI in the release media, Wloaded represents the total mass of TPI. TPI release in serum (20% Fetal Bovine Serum (FBS) in Phosphate-buffered saline (PBS)): the timepoints, sample volume, and calculation methods were identical to the above.

[2] = tested on: RAW 264.7 cells; assay: Cell proliferation assay (modified MTT); format: cell-based, murine
Method: Cell Proliferation Assay. A modified MTT (3-[4,5-dimethyl-thiazol-2-yl]-2,5-diphenyltetrazolium bromide) assay was performed to analyze macrophage proliferation. RAW 264.7 cells were plated at 25,000 cells/well in a 96-well plate grown overnight at 37°C., and serum-starved for the next 24 hrs. Cells were stimulated with 10% FBS for 24 hrs with SWNTs (4 nM), SWNT-TPI (TPI: 25 nM and 50 nM), or TPI (25 nM), and then incubated with 10 μL of MTT AB solution (Millipore, Billerica) for 2 hr. 100 μL of acidic isopropanol (0.04N HCl) was added to each well and the absorbance was measured at 570 nm (reference wavelength 650 nm) on an ELISA plate reader a SpectraMax 190 Microplate Reader (Molecular Devices). Statistical analysis Statistical differences were determined by one-way ANOVA, and results were expressed as means±SE. p-value<0.05 and p-value<0.01 were considered to indicate statistical significance. Statistical analyses were performed using GraphPad Prism 7 (GraphPad Inc.).

[3] = target: SHP-1 (Homo sapiens, UniProt P29350); details: cited from earlier work
SHP-1, sequence (P29350 whole entry): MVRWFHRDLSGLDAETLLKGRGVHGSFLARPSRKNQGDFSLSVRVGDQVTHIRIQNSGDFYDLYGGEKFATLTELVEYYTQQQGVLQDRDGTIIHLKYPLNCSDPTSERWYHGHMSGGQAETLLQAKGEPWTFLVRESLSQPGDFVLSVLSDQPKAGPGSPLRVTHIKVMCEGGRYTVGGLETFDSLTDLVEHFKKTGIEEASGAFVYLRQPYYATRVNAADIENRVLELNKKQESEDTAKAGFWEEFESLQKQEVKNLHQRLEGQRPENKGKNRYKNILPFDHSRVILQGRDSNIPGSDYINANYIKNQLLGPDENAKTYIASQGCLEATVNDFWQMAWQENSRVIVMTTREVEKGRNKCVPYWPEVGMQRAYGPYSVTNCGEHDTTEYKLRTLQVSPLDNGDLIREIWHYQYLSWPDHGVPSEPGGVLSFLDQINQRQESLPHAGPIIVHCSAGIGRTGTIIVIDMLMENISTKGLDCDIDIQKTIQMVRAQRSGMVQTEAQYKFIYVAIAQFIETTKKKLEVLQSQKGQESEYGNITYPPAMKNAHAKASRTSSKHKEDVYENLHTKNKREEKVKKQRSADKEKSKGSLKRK

Structure (SMILES)	TPI release from SWNTs in saline buffers [1]	RAW cell proliferation [2]	IC50 [3]	selectivity for SHP-1 over SHP-2 [3]	effectiveness as SHP-1 inhibitor relative to sodium stibogluconate ([3]; versus sodium stibogluconate)
O=C1C=CC(=O)C(c2cc(Cl)ccc2Cl)=C1 [TPI, 2-(2,5-dichlorophenyl)-2,5-cyclohexadiene-1,4-dione]	accelerated by progressively more acidic conditions	no significant effect	40 nM	selective toward SHP-1	over two orders of magnitude
O=S(=O)(O)c1ccc2cc(N=Nc3cc(S(=O)(=O)O)c4cccnc4c3O)ccc2c1 [NSC87877]			355 nM		

— patent US20220151921A1, “MONOCYTE-SELECTIVE DRUG DELIVERY SYSTEM USING SINGLE-WALLED CARBON NANOTUBES TO INDUCE EFFEROCYTOSIS” (The Board of Trustees of the Leland Stanford Junior …, priority 2019, published 2022)
